For this experiment, the target named is T1, LysM3 (Pseudomonas savastanoi, UniProt Q48F89).
T1 construct: gene PSPPH_3810; LysM + M23 domains; pET28a::lysM3 in E. coli BL21(DE3), HisTrap IMAC then SEC
Briefly: nanoDSF (Tycho NT.[…]) thermal shift. The experiment is classed as binding. As to conditions: 1 mM ligand, 5 µM protein, no Zn2+, 20 mM Hepes pH 8.0, 150 mM NaCl.

Here are results for two compounds from publication PMC12327690, “Secreted LysM proteins are required for niche competition and full virulence in Pseudomonas savastanoi during host plant infection” (PLOS Pathogens, 2025).

T1 sequence (Q48F89 entry or part of it): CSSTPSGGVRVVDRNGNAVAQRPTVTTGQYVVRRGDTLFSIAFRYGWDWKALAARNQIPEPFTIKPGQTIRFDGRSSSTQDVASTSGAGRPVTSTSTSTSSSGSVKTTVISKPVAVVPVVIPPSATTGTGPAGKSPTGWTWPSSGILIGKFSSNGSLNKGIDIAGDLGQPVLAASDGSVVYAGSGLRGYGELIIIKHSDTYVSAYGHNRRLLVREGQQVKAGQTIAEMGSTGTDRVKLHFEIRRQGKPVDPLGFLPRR

With `CC(=O)N[C@H]1[C@H](O[C@H]2[C@H](O)[C@@H](NC(C)=O)C(O)O[C@@H]2CO)O[C@H](CO)[C@@H](O[C@@H]2O[C@H](CO)[C@@H](O[C@@H]3O[C@H](CO)[C@@H](O)[C@H](O)[C@H]3NC(C)=O)[C@H](O)[C@H]2NC(C)=O)[C@@H]1O` (some centres unmarked) [NAG4, tetra-N-acetylglucosamine], the “Ti with ligand (LysM3 alone 51.4 ± 0.1)” value amounted to 52.9 ± 0.1 °C.

With `CC(=O)N[C@H]1[C@H](O[C@H]2[C@H](O)[C@@H](NC(C)=O)[C@H](O[C@H]3[C@H](O)[C@@H](NC(C)=O)C(O)O[C@@H]3CO)O[C@@H]2CO)O[C@H](CO)[C@@H](O[C@@H]2O[C@H](CO)[C@@H](O[C@@H]3O[C@H](CO)[C@@H](O[C@@H]4O[C@H](CO)[C@@H](O)[C@H](O)[C@H]4NC(C)=O)[C@H](O)[C@H]3NC(C)=O)[C@H](O)[C@H]2NC(C)=O)[C@@H]1O` (some centres unmarked) [NAG6, hexa-N-acetylglucosamine], the “Ti with ligand (LysM3 alone 51.4 ± 0.1)” value worked out at 52.7 ± 0.4 °C.
